Here are results for eight compounds from USRE37886E1, “1-(1,2-Disubstituted piperidinyl)-4-substituted piperazine derivatives” (Janssen Pharmaceuticals, N.V., priority 1995, dated 2002).

The subject of assay [1] is substance P induced plasma extravasation. Put plainly: Antagonism of substance P induced plasma extravasation in guinea-pigs. Type of assay: in vivo. As to conditions: lowest active dose, female guinea-pigs; for LAD nose: compound 1 hour prior to substance P (2 mg/kg, femoral artery), blue colouring of nose 10 minutes after challenge; for LAD conjunctiva / LAD forepaws / LAD trachea / LAD urinary bladder: compound 1 hour prior to substance P; for LAD conjunctiva: blue colouring of conjunctiva 10 minutes after challenge; for LAD forepaws: blue colouring of forepaws 10 minutes after challenge; for LAD trachea: blue colouring of trachea 30 minutes after challenge; for LAD urinary bladder: blue colouring of urinary bladder 30 minutes after challenge. The essentials: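 Female guinea-pigs dosed with compound 1 hour before femoral-artery substance P (2 mg/kg) plus Evans Blue (30 mg/kg). Blue colouring of nose, forepaws and conjunctiva scored at 10 minutes, trachea and bladder at 30 minutes; value is lowest active dose (mg/kg).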

For assay [2], the system named is substance-P induced relaxation of the pig coronary arteries. Nature of the assay: Antagonism of substance-P induced relaxation of the pig coronary arteries. Type of assay: cell-based. As to conditions: concentration at which 50% of the response to 10^−9 M substance P was inhibited; 30 minutes incubation; prostaglandin F2a precontracted segments. The text has this: The compounds of the present invention are potent inhibitors of neurokinin-mediated effects, in particular those mediated via the NK1 receptor, and may therefore be described as tachykinin antagonists, especially as substance P antagonists, as indicated in vitro by the antagonism of substance P induced relaxation of pig coronary arteries which is described hereinafter. The binding affinity of the present compounds for the human, guinea-pig and gerbil neurokinin receptors may be determined in vitro in a receptor binding test using ^3H-substance-P as radioligand. The subject compounds also show substance-P antagonistic activity in vivo as may be evidenced by, for instance, the antagonism of substance P-induced plasma extravasation in guinea-pigs, or the antagonism of drug-induced emesis in ferrets (Watson et al., Br. J. Pharmacol. 115, 84-94, 1995).
Antagonism of substance-P induced relaxation of the pig coronary arteries
Segments of coronary artieries taken from pigs (killed by injection of an overdose of sodium pentobarbital) were inverted and mounted for recordign of isometric tension in organ baths (volume 20 ml) with the endothelium at the outside. The preparations were bathed in Krebs-Henseleit solution. The solution was kept at 37° C. and gassed with a mixture of O2/CO2 (95/5). After stabilisation of the preparations, prostaglandin F2a (10^−5 M) was administered to induce a contraction. This was repeated until contractivle responses became stable. Then prostaglandin F2a was again administered and substance P(3×10^−10 M and 10^−9 M cumulatively) was added. Substance P induced endothelium dependent relaxations. After washing away the agonists, a known concentratin of a compound of formula (I) was added. After an incubation period of 30 minutes, prostaglandin F2a ([…]) and the same concentrations of sbustance P as described above were again administered in the presence of the compound to be tested. Relaxations caused by substance P were expressed as relaxations under control conditions, and percent inhibition of the response to […] substance P was taken as a measure of the antagonistic activity of the compound to be tested. Table 6 lists the IC50 values (concentration at which 50% of the response to […] substance P was inhibited by the test compound) for the tested compounds.

What is called IC50 is the point on the concentration scale where inhibition reaches its midpoint. A low value points to inhibition by little substance. As for `Cc1cccc(C)c1NC(=O)C(c1ccccc1)N1CCN(C2CCN(C(=O)c3cc(C(F)(F)F)cc(C(F)(F)F)c3)C(Cc3ccccc3)C2)CC1` (racemic) [Compound 94], in assay [1], the LAD nose amounted to 2.50 mg/kg, the LAD conjunctiva is listed as 2.50 mg/kg, the LAD forepaws is 2.50 mg/kg and the LAD trachea stood at 10.0 mg/kg. Also, the LAD urinary bladder in assay [1] is given as 10.0 mg/kg. The compound further yielded a concentration for half-maximal inhibition (IC50) in assay [2] of 0.42 nM.
For the compound `Cc1ncc(Cn2c(N3CCN(C4CCN(C(=O)c5cc(C(F)(F)F)cc(C(F)(F)F)c5)C(Cc5ccccc5)C4)CC3)nc3ccccc32)o1` (stereo not drawn) [Compound 24], in assay [1], the LAD nose was found to be 2.50 mg/kg, the LAD conjunctiva worked out at 10.0 mg/kg, the LAD forepaws turned out to be 2.50 mg/kg and the LAD trachea was 10.0 mg/kg. The LAD urinary bladder in assay [1] was >40 mg/kg. The same compound returned an IC50 in assay [2] of 0.64 nM.
As for “(−)-(A)-trans-4-[1-[3,5-bis(trifluoromethyl) benzoyl]-2-(phenylmethyl)-4-piperidinyl]-N-(2,6-dimethylphenyl)-1-piperazine acetamide [Compound 26]”, in assay [1], the LAD nose is 10.0 mg/kg, the LAD conjunctiva is 20.0 mg/kg, the LAD forepaws worked out at 10.0 mg/kg and the LAD trachea turned out to be 40.0 mg/kg. The same compound came in with an LAD urinary bladder in assay [1] of 20.0 mg/kg. In assay [2], this compound returned a half-inhibitory concentration (IC50) of 2.75 nM.
For `O=C(CN1CCN(C2CCN(C(=O)c3cc(C(F)(F)F)cc(C(F)(F)F)c3)C(Cc3ccccc3)C2)CC1)N1CCc2ccccc21` (racemic) [Compound 107], in assay [1], the LAD nose is 2.50 mg/kg, the LAD conjunctiva came out at 2.50 mg/kg, the LAD forepaws is on record as 2.50 mg/kg and the LAD trachea is given as 2.50 mg/kg. The LAD urinary bladder in assay [1] is 10.0 mg/kg. The compound also returned an IC50 in assay [2] of 0.96 nM.
In assay [1], `O=C(CN1CCN(C2CCN(C(=O)c3cc(C(F)(F)F)cc(C(F)(F)F)c3)C(Cc3ccccc3)C2)CC1)NC1(c2ccccc2)CCCCC1` (stereo not drawn) [Compound 49] had an LAD nose of 2.50 mg/kg, an LAD conjunctiva of 2.50 mg/kg, an LAD forepaws of 2.50 mg/kg and an LAD trachea of 10.0 mg/kg. The LAD urinary bladder in assay [1] was >40 mg/kg. The midpoint of inhibition in assay [2], the IC50, lay at 0.59 nM.
As to `O=C(CN1CCN(C2CCN(C(=O)c3cc(C(F)(F)F)cc(C(F)(F)F)c3)C(Cc3ccccc3)C2)CC1)NC(c1ccccc1)c1ccccc1` (stereo not drawn) [Compound 33], in assay [1], the LAD nose was found to be 2.50 mg/kg, the LAD conjunctiva turned out to be 2.50 mg/kg, the LAD forepaws amounted to 10.0 mg/kg and the LAD trachea is reported as >40 mg/kg. Besides, the LAD urinary bladder in assay [1] is >40 mg/kg. The compound further had a half-maximal inhibitory concentration (IC50) in assay [2] of 0.6 nM.
In assay [1], `Cc1cc(C)cc(COC(CN2CCN(C3CCN(C(=O)c4cc(C(F)(F)F)cc(C(F)(F)F)c4)C(Cc4ccccc4)C3)CC2)c2ccccc2)c1` (racemic) [Compound 87] came in with an LAD nose of 10.0 mg/kg, an LAD conjunctiva of 10.0 mg/kg, an LAD forepaws of 10.0 mg/kg and an LAD trachea of 10.0 mg/kg. In addition, the LAD urinary bladder in assay [1] is reported as >40 mg/kg. In assay [2], this compound returned a 50% inhibitory concentration (IC50) of 1.9 nM.
Consider `Cc1cccc(C)c1NC(=O)CN1CCN([C@@H]2CCN(C(=O)c3cc(C(F)(F)F)cc(C(F)(F)F)c3)[C@@H](Cc3ccccc3)C2)CC1.O=C(O)/C=C/C(=O)O` (relative stereo) [Compound 128, (B-trans)-4-[1-[3,5-bis(trifluoromethyl)benzoyl]-2-(phenylmethyl)-4-piperidinyl]-N-(2,6-dimethylphenyl)-1-piperazineacetamide (E)-2-butenedioate (1:1)], for which, in assay [1], the LAD nose was 0.63 mg/kg, the LAD conjunctiva was found to be 0.63 mg/kg, the LAD forepaws is 0.63 mg/kg and the LAD trachea is >40 mg/kg. This compound displayed an LAD urinary bladder in assay [1] of 10.0 mg/kg. In addition, in assay [2], the IC50 was determined as 0.35 nM.
